One assay relates to Rattus norvegicus. The assay can be described thus: Antiinflammatory activity in ovalbumin induced Brown Norway rat assessed as reduction in eosinophil counts in lung lavage fluid at 240 microg/kg administered using nebulizer for 12 hrs prior to ovalbumin challenge measured after 48 hrs by flow cytometry. Particulars: dose 240.0 µg/kg, time 60.0 hrs. Type of assay: functional, organism-based. Background: In flow cytometry, cells or beads pass a laser one at a time.

The target of assay [1] is Phosphatidylinositol 4,5-bisphosphate 3-kinase catalytic subunit delta isoform/gamma isoform (Homo sapiens) (UniProt P48736+O00329). The assay can be described thus: Inhibition of PI3kgamma/delta in anti-CD2/3/28-stimulated human PBMC cells derived from asthmatic patient assessed as reduction in IL-5 release pre-incubated for 1 hr followed by anti-CD2/3/28 stimulation measured after 24 hrs by flow cytometry. Type of assay: cell-based. Particulars: time 25.0 hrs.
Phosphatidylinositol 4,5-bisphosphate 3-kinase catalytic subunit delta isoform/gamma isoform (Homo sapiens), sequence (P48736 whole entry, looked up, one chain of several, canonical isoform): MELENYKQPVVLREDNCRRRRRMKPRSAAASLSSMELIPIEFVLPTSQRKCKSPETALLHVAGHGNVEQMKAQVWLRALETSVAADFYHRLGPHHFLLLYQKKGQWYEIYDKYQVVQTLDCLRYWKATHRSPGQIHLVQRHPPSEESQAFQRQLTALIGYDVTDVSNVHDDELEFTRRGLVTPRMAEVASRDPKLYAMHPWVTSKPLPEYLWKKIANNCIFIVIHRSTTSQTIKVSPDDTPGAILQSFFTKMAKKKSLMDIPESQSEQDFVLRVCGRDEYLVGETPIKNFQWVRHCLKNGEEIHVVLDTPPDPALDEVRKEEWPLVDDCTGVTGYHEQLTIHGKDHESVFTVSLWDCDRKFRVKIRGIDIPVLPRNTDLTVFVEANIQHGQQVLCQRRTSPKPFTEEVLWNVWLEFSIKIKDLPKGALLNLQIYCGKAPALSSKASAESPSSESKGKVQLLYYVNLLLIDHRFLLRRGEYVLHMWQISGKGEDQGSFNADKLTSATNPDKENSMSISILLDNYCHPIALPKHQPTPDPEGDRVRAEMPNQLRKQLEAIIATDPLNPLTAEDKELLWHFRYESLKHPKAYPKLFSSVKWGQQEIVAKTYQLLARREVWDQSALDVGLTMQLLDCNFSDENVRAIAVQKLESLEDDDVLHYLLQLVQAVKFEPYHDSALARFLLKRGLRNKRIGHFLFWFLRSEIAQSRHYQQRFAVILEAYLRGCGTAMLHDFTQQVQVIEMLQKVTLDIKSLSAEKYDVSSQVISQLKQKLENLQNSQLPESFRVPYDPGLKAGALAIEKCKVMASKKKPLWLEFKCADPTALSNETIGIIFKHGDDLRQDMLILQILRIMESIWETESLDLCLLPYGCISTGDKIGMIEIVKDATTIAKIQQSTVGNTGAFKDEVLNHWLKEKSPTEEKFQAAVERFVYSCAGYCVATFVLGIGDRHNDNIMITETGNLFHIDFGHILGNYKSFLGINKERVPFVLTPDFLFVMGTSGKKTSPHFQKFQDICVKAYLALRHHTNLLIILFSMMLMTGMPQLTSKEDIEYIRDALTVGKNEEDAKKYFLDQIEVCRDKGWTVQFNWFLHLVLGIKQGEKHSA

The target of assay [2] is T1, Phosphatidylinositol 4,5-bisphosphate 3-kinase catalytic subunit delta isoform (Homo sapiens, UniProt O00329).
T1 sequence (O00329 whole entry): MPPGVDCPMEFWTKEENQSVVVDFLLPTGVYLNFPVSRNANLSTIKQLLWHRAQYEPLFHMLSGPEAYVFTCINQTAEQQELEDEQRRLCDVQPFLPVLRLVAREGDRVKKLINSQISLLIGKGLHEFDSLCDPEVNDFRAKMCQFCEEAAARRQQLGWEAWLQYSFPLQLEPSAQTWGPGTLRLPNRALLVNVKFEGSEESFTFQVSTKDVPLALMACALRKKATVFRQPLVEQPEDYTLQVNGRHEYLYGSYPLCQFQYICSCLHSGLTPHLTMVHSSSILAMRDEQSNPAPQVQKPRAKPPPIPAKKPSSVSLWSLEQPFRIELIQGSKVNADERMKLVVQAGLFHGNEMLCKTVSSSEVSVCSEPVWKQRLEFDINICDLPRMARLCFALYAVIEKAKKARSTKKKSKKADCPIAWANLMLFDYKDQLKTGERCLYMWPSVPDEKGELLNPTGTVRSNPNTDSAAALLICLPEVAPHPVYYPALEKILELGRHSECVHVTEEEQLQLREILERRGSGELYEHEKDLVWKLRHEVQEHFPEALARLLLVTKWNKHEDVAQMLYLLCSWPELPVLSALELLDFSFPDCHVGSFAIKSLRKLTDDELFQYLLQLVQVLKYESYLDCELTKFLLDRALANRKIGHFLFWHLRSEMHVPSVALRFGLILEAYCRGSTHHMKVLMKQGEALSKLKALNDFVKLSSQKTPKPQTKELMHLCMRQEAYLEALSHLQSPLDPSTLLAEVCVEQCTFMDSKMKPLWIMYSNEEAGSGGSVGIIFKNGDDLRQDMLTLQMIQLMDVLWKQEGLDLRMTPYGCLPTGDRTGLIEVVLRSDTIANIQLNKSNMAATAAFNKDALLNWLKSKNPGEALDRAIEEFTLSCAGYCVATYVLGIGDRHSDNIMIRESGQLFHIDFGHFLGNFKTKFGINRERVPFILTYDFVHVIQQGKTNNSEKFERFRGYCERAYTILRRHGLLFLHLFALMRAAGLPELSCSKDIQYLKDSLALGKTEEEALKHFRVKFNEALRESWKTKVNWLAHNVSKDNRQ
Nature of the assay: Inhibition of recombinant human PI3Kdelta assessed as reduction in ADP production using Dic8-PIP2 as substrate pre-treated for 15 mins followed by substrate addition measured after 60 mins by ADP-glo assay. A general note: ADP-Glo turns the ADP formed in a reaction into a luminescent signal.

The target in assay [3] is T2, Phosphatidylinositol 3-kinase C2 domain-containing subunit gamma (Homo sapiens, UniProt O75747).
T2 sequence (O75747 whole entry): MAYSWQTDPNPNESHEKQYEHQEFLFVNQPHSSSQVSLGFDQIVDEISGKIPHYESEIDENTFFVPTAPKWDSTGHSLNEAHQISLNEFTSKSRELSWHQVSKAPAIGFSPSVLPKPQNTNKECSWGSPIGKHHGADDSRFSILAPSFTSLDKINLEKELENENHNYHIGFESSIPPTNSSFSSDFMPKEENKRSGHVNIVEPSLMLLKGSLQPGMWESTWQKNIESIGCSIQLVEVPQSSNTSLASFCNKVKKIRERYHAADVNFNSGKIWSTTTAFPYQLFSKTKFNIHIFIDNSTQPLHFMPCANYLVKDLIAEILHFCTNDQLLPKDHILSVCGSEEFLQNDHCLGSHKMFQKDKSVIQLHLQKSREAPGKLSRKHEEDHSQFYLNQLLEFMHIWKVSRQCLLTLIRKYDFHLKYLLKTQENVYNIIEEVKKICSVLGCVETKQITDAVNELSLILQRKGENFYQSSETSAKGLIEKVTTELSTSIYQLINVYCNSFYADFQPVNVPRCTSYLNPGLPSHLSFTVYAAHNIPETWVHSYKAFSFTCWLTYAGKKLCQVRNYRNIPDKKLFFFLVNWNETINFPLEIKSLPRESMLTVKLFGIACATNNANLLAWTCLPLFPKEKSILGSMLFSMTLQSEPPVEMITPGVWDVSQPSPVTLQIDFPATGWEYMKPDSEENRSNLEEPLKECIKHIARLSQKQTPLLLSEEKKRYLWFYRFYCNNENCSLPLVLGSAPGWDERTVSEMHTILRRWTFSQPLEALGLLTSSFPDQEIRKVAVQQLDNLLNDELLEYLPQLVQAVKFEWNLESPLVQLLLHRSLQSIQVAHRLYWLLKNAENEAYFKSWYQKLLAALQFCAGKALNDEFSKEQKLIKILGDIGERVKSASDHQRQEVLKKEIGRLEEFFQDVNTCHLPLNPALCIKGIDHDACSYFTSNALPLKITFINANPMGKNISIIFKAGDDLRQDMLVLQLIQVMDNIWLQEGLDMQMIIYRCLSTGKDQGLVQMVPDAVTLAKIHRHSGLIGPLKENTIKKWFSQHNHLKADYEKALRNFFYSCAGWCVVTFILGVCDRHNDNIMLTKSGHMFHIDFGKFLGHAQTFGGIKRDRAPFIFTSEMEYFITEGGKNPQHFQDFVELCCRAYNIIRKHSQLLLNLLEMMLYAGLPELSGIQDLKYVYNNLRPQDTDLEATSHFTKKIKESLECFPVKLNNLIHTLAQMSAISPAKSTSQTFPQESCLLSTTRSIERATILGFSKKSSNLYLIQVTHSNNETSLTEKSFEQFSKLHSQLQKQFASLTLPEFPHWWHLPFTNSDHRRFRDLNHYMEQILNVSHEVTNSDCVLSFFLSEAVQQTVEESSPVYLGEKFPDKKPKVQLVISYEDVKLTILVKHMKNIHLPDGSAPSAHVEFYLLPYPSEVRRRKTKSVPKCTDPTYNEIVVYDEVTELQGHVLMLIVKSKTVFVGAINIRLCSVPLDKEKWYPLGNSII
Nature of the assay: Inhibition of PIK3C2G (unknown origin) assessed as reduction in substrate phosphorylation by FRET Adapta assay.

Structures are written as SMILES. Activity calls are given as the source filed them. No cut-off for these calls is given here.

By IC50 is commonly meant the concentration that inhibits the measured activity by half. On to `Cc1nc(Nc2cccc(N3CCCC3=O)n2)sc1-c1cc2c(c(S(C)(=O)=O)c1)C(=O)N([C@@H](C)C1CC1)C2` [AZD-8154], for which, in the assay with Rattus norvegicus, the outcome was inactive. The outcome in assay [1] was Active. Further, the IC50 in assay [2] was 0.631 nM; in assay [3], 63.1 nM.

The values are drawn from ChEMBL document CHEMBL5029145, “Discovery of AZD8154, a Dual PI3Kγδ Inhibitor for the Treatment of Asthma” (J Med Chem, 2021).
